Test results from PMC8518382, “Identification of a Bromodomain‐like Region in 15‐Lipoxygenase‐1 Explains Its Nuclear Localization” (Angewandte Chemie (International Ed. in English), 2021).

Legend:
[1] = biological target: T1, 15-LOX-2 (Homo sapiens, UniProt O15296); assay: Sandwich ELISA of Labelox B biotinylation in A549 cell lysate, 15-LOX-2 capture; format: biochemical; details: HRP-streptavidin detection, read-out: EC50 of labeling
T1 construct: endogenous in cells; host or cells: A549 cell lysate
T1 sequence (O15296 1-676): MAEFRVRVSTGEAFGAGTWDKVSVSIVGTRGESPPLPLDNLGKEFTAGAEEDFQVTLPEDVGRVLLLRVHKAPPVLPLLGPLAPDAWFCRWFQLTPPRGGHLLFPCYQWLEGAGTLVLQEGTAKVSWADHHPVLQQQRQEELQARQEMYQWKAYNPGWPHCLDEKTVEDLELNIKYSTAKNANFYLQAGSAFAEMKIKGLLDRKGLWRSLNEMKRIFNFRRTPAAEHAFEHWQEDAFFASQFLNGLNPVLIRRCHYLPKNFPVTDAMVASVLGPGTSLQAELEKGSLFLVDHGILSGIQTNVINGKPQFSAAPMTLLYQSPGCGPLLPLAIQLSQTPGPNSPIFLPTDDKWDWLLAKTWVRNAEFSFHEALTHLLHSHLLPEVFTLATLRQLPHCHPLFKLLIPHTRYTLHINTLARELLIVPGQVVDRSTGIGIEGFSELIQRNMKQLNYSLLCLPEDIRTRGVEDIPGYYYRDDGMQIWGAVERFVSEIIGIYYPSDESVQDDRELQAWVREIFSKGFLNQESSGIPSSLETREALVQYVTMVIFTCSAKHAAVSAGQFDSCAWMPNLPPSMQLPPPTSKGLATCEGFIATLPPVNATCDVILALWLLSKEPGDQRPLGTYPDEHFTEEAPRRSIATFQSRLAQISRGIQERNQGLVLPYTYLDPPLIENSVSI
Experimental: Labelox B efficiently labels endogenous LOXs. Lipoxygenase labeling by Labelox B was investigated using cell‐based assays. As a first step, labeling efficiency was estimated in intact RAW 264.7 macrophage cells that were treated with Labelox B in concentrations ranging between 1 μM and 100 μM with incubation times between 0.5 h and 6 h. […] As a next step, a sandwich ELISA assay was established in order to find proof that probe Labelox B is indeed labeling proteins with lipoxygenase enzyme activity. Towards this aim, A549 cell lysates were treated with sub‐micromolar to micromolar concentrations of Labelox B. Subsequently, the endogenous LOXs were captured on an anti‐LOX antibody precoated 96‐well plate followed by detection of Labelox B mediated biotinylation using HRP‐conjugated streptavidin. […] Furthermore, probe Labelox B enabled visualization of localized LOX activity in living cells (Figure 2 c). […] The fluorescence intensity increased with increasing doses of Labelox B and labeling was observed throughout the cells in the cytoplasm and the nucleus of A549.
Figure 2 Labelox B labels endogenous LOXs in a dose‐ and time‐dependent manner. a, b) Western blot analysis of Labelox B labeled LOXs in intact RAW 264.7 for indicated doses and time points. […] The pictures were captured by a Leica DM4000b fluorescence microscope.

[2] = biological target: T2, 15-LOX-1 (Homo sapiens, UniProt P16050); assay: Jump dilution assay on recombinant 15-LOX-1; format: biochemical; parameters: His-tag (N); made in house; host or cells: E. coli BL21(DE3); details: 10 µM for 20 min at room temperature, then 100-fold dilution
T2 sequence (P16050 1-662): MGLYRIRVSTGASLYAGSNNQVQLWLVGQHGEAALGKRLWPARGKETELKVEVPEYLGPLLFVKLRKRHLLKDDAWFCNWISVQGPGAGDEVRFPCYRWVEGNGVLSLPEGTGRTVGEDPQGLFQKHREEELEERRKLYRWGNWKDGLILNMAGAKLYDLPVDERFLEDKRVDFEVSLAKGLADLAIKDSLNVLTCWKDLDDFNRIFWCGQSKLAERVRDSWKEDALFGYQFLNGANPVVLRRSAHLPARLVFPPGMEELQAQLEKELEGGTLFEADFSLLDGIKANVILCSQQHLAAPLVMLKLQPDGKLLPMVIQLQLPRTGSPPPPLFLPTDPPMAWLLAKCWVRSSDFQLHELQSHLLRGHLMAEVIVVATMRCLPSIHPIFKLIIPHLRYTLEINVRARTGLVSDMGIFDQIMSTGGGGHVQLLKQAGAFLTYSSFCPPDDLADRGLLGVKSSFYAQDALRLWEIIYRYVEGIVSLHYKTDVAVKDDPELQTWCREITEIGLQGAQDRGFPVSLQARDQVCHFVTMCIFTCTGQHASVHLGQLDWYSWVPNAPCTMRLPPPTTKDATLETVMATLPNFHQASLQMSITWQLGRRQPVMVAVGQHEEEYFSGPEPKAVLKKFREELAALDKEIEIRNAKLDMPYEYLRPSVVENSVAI
Experimental: Figure S3. Labelox B labeled endogenous LOXs are immunoprecipitated by streptavidin beads. (A) A549 cell lysates were treated with. Labelox B. After labeling, free Labelox B was removed by Vivaspin
2. Labelox B labeled proteins were precipitated by Dynabeads and analyzed by Western blotting. (B) Uncropped Western blots for (A)
LOX-1 was incubated with Labelox B at 10 µM for 20min at room temperature to ensure 100% inhibition. Then, the enzyme/probe mixture was dilution 100-fold and employed for linoleic acid conversion. The group incubated with vehicle was condisered as positive control, while the group in […] of 15-LOX-1 was negative control. […]

EC50 [1]: ~3.5 µM
Reversibility of inhibition [2]: irreversibly inhibits
SMILES: CCCCCC#CCC#CCOC(=O)CCCC[C@@H]1SC[C@@H]2NC(=O)N[C@@H]21 [Labelox B (3)]
